Assay [1] has as its system export of VSV-G protein from the ER. Conditions: cited from earlier work.
The test system is the same in assay [2]. Format: cell-based. The note with it: for morphological effect on VSV-G export/transport: 45 min at 32°C.
For assay [3], the system named is ER to Golgi transport of VSV-G protein. Format: cell-based.

With `C=C1[C@@H](O)[C@@H]2O[C@]3(CC[C@H](/C=C/[C@@H](C)[C@@H]4CC(C)=C[C@@]5(O[C@H](C[C@@](C)(O)C(=O)O)CC[C@H]5O)O4)O3)CC[C@H]2O[C@@H]1[C@@H](O)C[C@H](C)[C@H]1O[C@@]2(CCCCO2)CC[C@H]1C` [OKA, okadaic acid], the “effect on VSV-G protein exit from the ER” value in assay [1] is recorded as “potently inhibit VSV-G protein exit from the ER”.
Turning to `C/C=C(/C)C(=O)O[C@H]1C(C)=C2[C@H]([C@@H]1OC(=O)CCCCCCC)[C@@](C)(OC(C)=O)C[C@H](OC(=O)CCC)[C@@]1(O)[C@H]2OC(=O)[C@@]1(C)O` [thapsigargan], in assay [2], the “effect on VSV-G export in vitro” value was “no effectof the drug”.
As to AlCl3, the “morphological effect on VSV-G export/transport” value in assay [2] is recorded as “did not inhibit”. Also, the “effect on processing of VSV-G to the endo HR form” value in assay [3] was “no effect”.
Turning to “guanosine-5'-O-(3-thiophospbate) [GTPTS]”, in assay [2], the “VSV-G containing punctate intermediates that contain rab1B” value is listed as less than 10% and the “morphological effect on VSV-G export/transport” value is given as “concentrated in numerous small, punctate structures”.

These data come from PMC2289734 (The Journal of Cell Biology, 1992).
